Calls of active or inactive are those of the source. The rule behind the calls is not given here.
How the values were obtained:
[1] = tested on: A-431; experiment: Induction of apoptosis in human A-431 cells assessed as early apoptotic cells at 8 uM measured after 48 hrs by Annexin V-FITC staining based flow cytometry (reference value: 2.1%); assay type: functional
[2] = tested on: A-431; experiment: Induction of apoptosis in human A-431 cells assessed as necrotic cells at 0.2 uM measured after 48 hrs by Annexin V-FITC staining based flow cytometry (reference value: 0.21%); assay type: functional
[3] = tested on: A-431; experiment: Antiproliferative activity against human A-431 cells assessed as inhibition of cell proliferation measured after 72 hrs by MTT assay; assay type: functional, cell-based; details: A-431, 72 h
[4] = tested on: A-431; experiment: Induction of apoptosis in human A-431 cells assessed as early apoptotic cells at 4 uM measured after 48 hrs by Annexin V-FITC staining based flow cytometry (reference value: 2.1%); assay type: functional
[5] = species on record: Homo sapiens; experiment: Inhibition of EGFR T790M/L858R double mutant (unknown origin) using FAM-labelled peptide as substrate at 1 uM incubated for 10 mins in presence of ATP measured by mobility shift assay
[6] = tested on: A-431; experiment: Induction of apoptosis in human A-431 cells assessed as viable cells at 4 uM measured after 48 hrs by Annexin V-FITC staining based flow cytometry (reference value: 95.67%); assay type: functional; details: read-out: Activity
[7] = tested on: A549; experiment: Antiproliferative activity against human A549 cells assessed as inhibition of cell proliferation measured after 72 hrs by MTT assay; assay type: functional, cell-based; details: A549, 72 h
[8] = tested on: A-431; experiment: Induction of apoptosis in human A-431 cells assessed as necrotic cells at 8 uM measured after 48 hrs by Annexin V-FITC staining based flow cytometry (reference value: 0.21%); assay type: functional
[9] = Inhibition of EGFR T790M mutant (unknown origin) using FAM-labelled peptide as substrate incubated for 10 mins in presence of ATP measured by mobility shift assay; parameters: species or system Homo sapiens
[10] = target: Serine/threonine-protein kinase mTOR (Homo sapiens) (UniProt P42345); experiment: Inhibition of mTOR (unknown origin) using FAM-labelled peptide as substrate at 1 uM incubated for 10 mins in presence of ATP measured by mobility shift assay
[11] = species on record: Homo sapiens; experiment: Inhibition of EGFR T790M mutant (unknown origin) using FAM-labelled peptide as substrate at 1 uM incubated for 10 mins in presence of ATP measured by mobility shift assay
[12] = species on record: Homo sapiens; experiment: Selectivity ratio of IC50 for wild type EGFR (unknown origin) to IC50 for EGFR T790M mutant (unknown origin) measured by mobility shift assay
[13] = target: Hepatocyte growth factor receptor (Homo sapiens) (UniProt P08581); experiment: Inhibition of c-MET (unknown origin) using FAM-labelled peptide as substrate at 1 uM incubated for 10 mins in presence of ATP measured by mobility shift assay
Sequence of Hepatocyte growth factor receptor (Homo sapiens) (P08581 whole entry): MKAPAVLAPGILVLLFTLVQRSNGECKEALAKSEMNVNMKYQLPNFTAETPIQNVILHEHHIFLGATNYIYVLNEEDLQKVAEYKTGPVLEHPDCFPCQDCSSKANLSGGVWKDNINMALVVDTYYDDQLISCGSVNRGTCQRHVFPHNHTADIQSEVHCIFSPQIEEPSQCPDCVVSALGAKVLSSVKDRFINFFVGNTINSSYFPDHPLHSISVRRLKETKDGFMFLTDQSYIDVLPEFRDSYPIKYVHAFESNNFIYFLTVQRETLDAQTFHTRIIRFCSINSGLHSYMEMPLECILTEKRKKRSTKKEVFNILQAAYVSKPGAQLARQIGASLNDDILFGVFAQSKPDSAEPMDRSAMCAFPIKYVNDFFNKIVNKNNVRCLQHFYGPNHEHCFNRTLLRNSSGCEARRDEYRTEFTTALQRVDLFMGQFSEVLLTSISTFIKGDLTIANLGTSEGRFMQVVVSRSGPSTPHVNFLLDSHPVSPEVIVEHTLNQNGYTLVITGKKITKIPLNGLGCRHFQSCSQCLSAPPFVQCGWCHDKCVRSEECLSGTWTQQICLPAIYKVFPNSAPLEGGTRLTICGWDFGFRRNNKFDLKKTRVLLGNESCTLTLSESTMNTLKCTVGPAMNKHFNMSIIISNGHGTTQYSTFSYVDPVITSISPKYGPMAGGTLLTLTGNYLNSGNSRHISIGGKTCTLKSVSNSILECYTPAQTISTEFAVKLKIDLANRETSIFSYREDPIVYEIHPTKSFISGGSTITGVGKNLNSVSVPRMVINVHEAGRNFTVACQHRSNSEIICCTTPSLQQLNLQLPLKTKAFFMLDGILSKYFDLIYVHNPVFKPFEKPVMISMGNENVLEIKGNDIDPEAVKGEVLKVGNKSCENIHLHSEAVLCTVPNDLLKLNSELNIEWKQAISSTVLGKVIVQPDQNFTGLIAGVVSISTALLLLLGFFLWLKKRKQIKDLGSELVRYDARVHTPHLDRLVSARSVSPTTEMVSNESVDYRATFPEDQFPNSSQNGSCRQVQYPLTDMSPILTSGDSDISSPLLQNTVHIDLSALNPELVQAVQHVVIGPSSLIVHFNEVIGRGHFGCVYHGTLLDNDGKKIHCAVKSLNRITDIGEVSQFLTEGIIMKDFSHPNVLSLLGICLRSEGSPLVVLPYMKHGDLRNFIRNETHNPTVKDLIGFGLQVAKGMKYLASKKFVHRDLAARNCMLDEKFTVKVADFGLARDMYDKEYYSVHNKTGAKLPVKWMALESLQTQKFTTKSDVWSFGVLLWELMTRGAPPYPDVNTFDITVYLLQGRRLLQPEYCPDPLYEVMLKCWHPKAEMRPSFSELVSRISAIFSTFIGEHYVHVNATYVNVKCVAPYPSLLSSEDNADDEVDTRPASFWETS

[14] = tested on: NCI-H1975; experiment: Antiproliferative activity against human NCI-H1975 cells harboring EGFR T790M/L858R double mutant assessed as inhibition of cell viability measured after 72 hrs by MTT assay; assay type: functional, cell-based; details: NCI-H1975, 72 h
[15] = tested on: A-431; experiment: Induction of apoptosis in human A-431 cells assessed as late apoptotic cells at 8 uM measured after 48 hrs by Annexin V-FITC staining based flow cytometry (reference value: 2.02%); assay type: functional
[16] = species on record: Homo sapiens; experiment: Inhibition of PI3K (unknown origin) using FAM-labelled peptide as substrate at 1 uM incubated for 10 mins in presence of ATP measured by mobility shift assay
[17] = tested on: A-431; experiment: Induction of apoptosis in human A-431 cells assessed as early apoptotic cells at 0.2 uM measured after 48 hrs by Annexin V-FITC staining based flow cytometry (reference value: 2.1%); assay type: functional
[18] = tested on: A-431; experiment: Induction of apoptosis in human A-431 cells assessed as viable cells at 8 uM measured after 48 hrs by Annexin V-FITC staining based flow cytometry (reference value: 95.67%); assay type: functional; details: read-out: Activity
[19] = tested on: A-431; experiment: Induction of apoptosis in human A-431 cells assessed as viable cells at 0.2 uM measured after 48 hrs by Annexin V-FITC staining based flow cytometry (reference value: 95.67%); assay type: functional; details: read-out: Activity
[20] = tested on: MCF7; experiment: Antiproliferative activity against human MCF7 cells assessed as inhibition of cell proliferation measured after 72 hrs by MTT assay; assay type: functional, cell-based; details: MCF7, 72 h
[21] = tested on: HeLa; experiment: Antiproliferative activity against human HeLa cells assessed as inhibition of cell proliferation measured after 72 hrs by MTT assay; assay type: functional, cell-based
[22] = tested on: A-431; experiment: Induction of cell morphological changes in human A-431 cells assessed as chromatin contraction with sharp cell edge at 0.33 uM measured after 6 hrs by Acridine orange staining based fluorescence microscopy; assay type: functional
[23] = tested on: A-431; experiment: Induction of apoptosis in human A-431 cells assessed as late apoptotic cells at 0.2 uM measured after 48 hrs by Annexin V-FITC staining based flow cytometry (reference value: 2.02%); assay type: functional
[24] = tested on: NCI-H1975; experiment: Antiproliferative activity against human NCI-H1975 cells harboring EGFR T790M/L858R double mutant assessed as inhibition of cell viability at 1 uM measured after 72 hrs by MTT assay; assay type: functional
[25] = target: Vascular endothelial growth factor receptor 2 (Homo sapiens) (UniProt P35968); experiment: Inhibition of KDR (unknown origin) using FAM-labelled peptide as substrate at 1 uM incubated for 10 mins in presence of ATP measured by mobility shift assay
Sequence of Vascular endothelial growth factor receptor 2 (Homo sapiens) (P35968 whole entry): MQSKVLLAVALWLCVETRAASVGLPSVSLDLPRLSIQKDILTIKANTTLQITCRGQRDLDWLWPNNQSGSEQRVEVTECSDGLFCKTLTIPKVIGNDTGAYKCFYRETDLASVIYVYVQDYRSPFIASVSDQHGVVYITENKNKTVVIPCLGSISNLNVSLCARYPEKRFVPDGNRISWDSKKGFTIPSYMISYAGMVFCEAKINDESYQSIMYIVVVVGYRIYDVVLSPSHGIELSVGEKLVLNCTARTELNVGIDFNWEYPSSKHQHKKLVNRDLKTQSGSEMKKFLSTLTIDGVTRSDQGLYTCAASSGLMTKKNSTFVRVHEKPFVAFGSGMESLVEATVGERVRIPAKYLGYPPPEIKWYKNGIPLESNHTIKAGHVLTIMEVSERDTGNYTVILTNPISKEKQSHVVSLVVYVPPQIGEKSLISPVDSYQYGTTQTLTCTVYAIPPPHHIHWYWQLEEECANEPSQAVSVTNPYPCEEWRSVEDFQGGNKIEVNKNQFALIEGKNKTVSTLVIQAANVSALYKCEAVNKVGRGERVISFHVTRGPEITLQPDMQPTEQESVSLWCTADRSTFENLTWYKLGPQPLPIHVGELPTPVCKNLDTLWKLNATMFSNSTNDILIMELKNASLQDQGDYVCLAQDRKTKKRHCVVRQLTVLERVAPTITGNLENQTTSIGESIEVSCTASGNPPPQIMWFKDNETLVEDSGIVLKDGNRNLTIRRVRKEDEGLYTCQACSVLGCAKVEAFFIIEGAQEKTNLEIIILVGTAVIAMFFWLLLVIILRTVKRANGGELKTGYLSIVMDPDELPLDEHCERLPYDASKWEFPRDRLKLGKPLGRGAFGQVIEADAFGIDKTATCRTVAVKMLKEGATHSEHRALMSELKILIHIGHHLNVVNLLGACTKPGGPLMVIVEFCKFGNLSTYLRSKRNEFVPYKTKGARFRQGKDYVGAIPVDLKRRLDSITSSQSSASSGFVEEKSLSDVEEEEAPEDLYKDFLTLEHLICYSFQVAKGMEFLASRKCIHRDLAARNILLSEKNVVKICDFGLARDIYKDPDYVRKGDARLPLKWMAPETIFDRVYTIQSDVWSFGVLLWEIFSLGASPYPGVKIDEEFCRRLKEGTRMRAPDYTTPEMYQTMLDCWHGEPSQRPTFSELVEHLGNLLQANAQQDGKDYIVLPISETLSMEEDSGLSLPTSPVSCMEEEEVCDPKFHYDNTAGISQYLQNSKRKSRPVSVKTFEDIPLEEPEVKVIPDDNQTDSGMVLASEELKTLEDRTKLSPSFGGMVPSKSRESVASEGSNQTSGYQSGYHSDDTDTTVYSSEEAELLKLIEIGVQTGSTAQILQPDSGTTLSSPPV

[26] = tested on: A-431; experiment: Antiproliferative activity against human A-431 cells assessed as inhibition of cell proliferation at 0.33 uM measured after 6 hrs by Acridine orange staining based fluorescence microscopy; assay type: functional
[27] = Inhibition of EGFR T790M/L858R double mutant (unknown origin) using FAM-labelled peptide as substrate incubated for 10 mins in presence of ATP measured by mobility shift assay; parameters: species or system Homo sapiens
[28] = tested on: A-431; experiment: Induction of apoptosis in human A-431 cells assessed as late apoptotic cells at 4 uM measured after 48 hrs by Annexin V-FITC staining based flow cytometry (reference value: 2.02%); assay type: functional
[29] = tested on: A-431; experiment: Induction of apoptosis in human A-431 cells assessed as necrotic cells at 4 uM measured after 48 hrs by Annexin V-FITC staining based flow cytometry (reference value: 0.21%); assay type: functional
[30] = target: T1, Epidermal growth factor receptor (Homo sapiens, UniProt P00533); experiment: Inhibition of wild type EGFR (unknown origin) using FAM-labelled peptide as substrate at 1 uM incubated for 10 mins in presence of ATP measured by mobility shift assay
T1 sequence (P00533 whole entry): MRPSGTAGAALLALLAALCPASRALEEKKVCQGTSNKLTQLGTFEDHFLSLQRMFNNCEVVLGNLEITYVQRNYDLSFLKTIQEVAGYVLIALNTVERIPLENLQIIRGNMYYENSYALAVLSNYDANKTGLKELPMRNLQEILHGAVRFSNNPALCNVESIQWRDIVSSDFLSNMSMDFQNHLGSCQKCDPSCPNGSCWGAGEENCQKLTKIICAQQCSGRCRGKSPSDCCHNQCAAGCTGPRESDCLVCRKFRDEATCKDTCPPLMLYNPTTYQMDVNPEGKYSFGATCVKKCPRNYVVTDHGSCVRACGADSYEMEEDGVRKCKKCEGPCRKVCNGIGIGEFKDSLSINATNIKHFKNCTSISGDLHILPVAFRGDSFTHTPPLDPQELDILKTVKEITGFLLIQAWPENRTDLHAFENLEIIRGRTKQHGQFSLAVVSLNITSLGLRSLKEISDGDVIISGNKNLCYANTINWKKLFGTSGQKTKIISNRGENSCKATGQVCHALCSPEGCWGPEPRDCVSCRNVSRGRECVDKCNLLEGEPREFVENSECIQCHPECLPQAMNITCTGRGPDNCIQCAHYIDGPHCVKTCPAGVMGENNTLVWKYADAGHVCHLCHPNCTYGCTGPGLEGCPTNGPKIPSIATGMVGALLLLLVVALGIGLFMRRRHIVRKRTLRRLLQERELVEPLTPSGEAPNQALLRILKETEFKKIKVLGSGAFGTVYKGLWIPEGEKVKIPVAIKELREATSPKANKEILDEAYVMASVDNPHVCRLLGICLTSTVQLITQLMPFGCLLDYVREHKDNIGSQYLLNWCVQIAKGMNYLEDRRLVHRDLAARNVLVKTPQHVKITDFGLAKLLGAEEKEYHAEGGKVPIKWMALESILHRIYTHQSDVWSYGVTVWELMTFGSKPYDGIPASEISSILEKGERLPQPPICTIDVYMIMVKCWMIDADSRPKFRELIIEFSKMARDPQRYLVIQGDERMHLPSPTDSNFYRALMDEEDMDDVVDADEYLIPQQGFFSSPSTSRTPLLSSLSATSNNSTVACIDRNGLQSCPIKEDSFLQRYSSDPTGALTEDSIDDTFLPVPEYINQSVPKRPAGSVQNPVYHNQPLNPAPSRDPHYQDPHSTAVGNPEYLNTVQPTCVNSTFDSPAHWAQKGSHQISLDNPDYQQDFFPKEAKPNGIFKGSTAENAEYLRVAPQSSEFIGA

[31] = target: T1, Epidermal growth factor receptor; experiment: Inhibition of wild type EGFR (unknown origin) using FAM-labelled peptide as substrate incubated for 10 mins in presence of ATP measured by mobility shift assay
[32] = tested on: NCI-H1975; experiment: Antiproliferative activity against human NCI-H1975 cells harboring EGFR T790M/L858R double mutant assessed as inhibition of cell viability at 10 uM measured after 72 hrs by MTT assay; assay type: functional
[33] = tested on: L02; experiment: Cytotoxicity against human L02 cells assessed as inhibition of cell proliferation measured after 72 hrs by MTT assay; assay type: cell-based; details: L02, 72 h
[34] = species on record: Homo sapiens; experiment: Selectivity ratio of IC50 for wild type EGFR (unknown origin) to IC50 for EGFR T790M/L858R double mutant (unknown origin) measured by mobility shift assay

- IC50 [3]: 3.79 µM
- inhibition [5]: 104%
- IC50 [7]: 4.34 µM
- IC50 [9]: 0.065 µM
- inhibition [10]: 9.3%
- inhibition [11]: 95.9%
- Selectivity ratio [12]: > 15
- inhibition [13]: 6%
- IC50 [14]: 0.699 µM
- inhibition [16]: 31.5%
- IC50 [20]: 19 µM
- IC50 [21]: 6.39 µM
- inhibition [25]: 1.1%
- IC50 [27]: 0.0136 µM
- inhibition [30]: 23.5%
- IC50 [31]: > 1 µM
- Selectivity ratio [34]: > 73
Compound: C=CC(=O)Nc1cccc(Oc2nc(Nc3cccc(C#N)c3)nc3ccsc23)c1
- Activity [1]: 3.54%
- Activity [2]: 0.63%
- Activity [4]: 4.87%
- viability at 4 µM [6]: 77.4%
- Activity [8]: 0.97%
- Activity [15]: 17.17%
- Activity [17]: 3.29%
- viability at 8 µM [18]: 78.3%
- viability at 0.2 µM [19]: 83.4%
- Activity [22]: Active
- Activity [23]: 12.66%
- inhibition at 1 µM [24]: 44.3%
- Activity [26]: Active
- Activity [28]: 16.41%
- Activity [29]: 1.33%
- inhibition at 10 µM [32]: 79.5%
- IC50 [33]: > 50 µM
